Measured values taken from US4147796A, “1-(3-Hydroxyalk-1-yl)-5-(carboxyalkyl)hydantoin derivatives” (Beecham Group Limited, priority 1976, dated 1979).

Legend:
[1] = system: 5-hydroxytryptamine-induced constriction; test: Inhibition of 5-hydroxytryptamine induced bronchoconstriction in the anaesthetised, artificially respired guinea pig (Konzett-Rossler preparation); type: in vivo; conditions: Cavia porcellus, iv, read-out: ID50 against 5-hydroxytryptamine-induced constriction
Experimental: (§1) 1. The compounds were examined for their ability to inhibit 5-hydroxytryptamine or histamine induced bronchoconstriction in the anaesthetised, artificially respired guinea pig (Konzett-Rossler preparation). The compounds were administered intravenously.

[2] = system: bronchoconstriction induced by an histamine aerosol; test: Protection of conscious guinea pigs against bronchoconstriction induced by an histamine aerosol (Herxheimer test); type: in vivo, guinea pig; parameters: key to Aerosol route Activity (class symbol) / Oral route Activity (class symbol): A: active; conditions: mean of several experiments; for minimal effective dose: Cavia porcellus, read-out: Oral route Activity: dose at which active; for minimal effective dose / Oral route Activity (class symbol): oral route
Experimental: 2. the compounds were also examined for their ability to protect conscious guinea pigs against bronchoconstriction induced by an histamine aerosol (Herxheimer test). In these experiments the compounds were administered by aerosol or by oral administration. The results are shown in Table B. The results are the mean of several experiments.

[3] = system: pentagastrin-stimulated gastric acid secretion; test: Inhibition of pentagastrin-stimulated gastric acid secretion in the anaesthetised, perfused rat stomach preparation (Ghosh and Schild preparation); type: in vivo; conditions: i.v.
Experimental: The compounds were examined for their ability to inhibit pentagastrin-stimulated gastric acid secretion in the anaesthetised, perfused rat stomach preparation (Ghosh and Schild preparation). The compounds were administered intra-venously.

[4] = in vivo; parameters: species or system mice; conditions: mouse
Experimental: For example, Compound 17 was not toxic in mice at doses up to 300 mg/kg, orally, or at doses up to 100 mg/kg, intraperitoneally, whereas Compound 21 was not toxic at doses up to 900 mg/kg, orally, in mice.

[5] = system: heart fibrillation induced by chloroform; test: Anti-arrythmic activity: prevention of heart fibrillation in mice exposed to chloroform; type: in vivo; conditions: 100 mg/kg intraperitoneally, group of 3 mice
Source text: The compounds were examined for anti-arrythmic activity by determining their ability to prevent heart fibrillation in mice exposed to chloroform.

[6] = system: platelet aggregation induced by collagen in human platelet rich plasma; test: Inhibition of collagen-induced platelet aggregation in vitro in human platelet rich plasma; type: cell-based; conditions: for inhibition at 100 µM: collagen-induced
Source text: The compounds were examined for their ability to inhibit platelet aggregation induced in vitro by collagen in human platelet rich plasma.

[7] = system: indomethacin induced gastric damage; test: Anti-ulcer activity: inhibition of indomethacin induced gastric damage in the rat; type: in vivo; conditions: 100 mg/kg orally, 30 minutes prior to 15 mg/kg indomethacin s.c., groups of 7 rats, score scale 1-9
Experimental: Anti-ulcer activity was assessed by the inhibition of indomethacin induced gastric damage in the rat according to the method of Eleghe (1974) Israeli J. Med. Sci. 10. 1451. Rats were starved overnight given 15 mg/kg indomethacin subcutaneously and sacrificed 4 hours later. Stomachs were reflated with n.saline, cut along the greater curvature pinned out and scored for gastric damage by the following system:
Score 1-3--according to degree of erythema and slight haemorrhage.
Score 4-6--according to degree of mucosal erosion.
Score 7-9--according to depth of gastric damage.
Groups of 7 rats were used for each treatment and the test compound or vehicle were administered 30 minutes prior to giving the indomethacin. Dose of test compound was 100 mg/kg orally and control groups receiving vehicle only were set up simultaneously. Mean values for each treatment were obtained using the above scoring system and the Mann Witney test applied for significance of difference between the values obtained with the treatments.

[8] = system: histamine-induced bronchoconstriction; test: Inhibition of histamine induced bronchoconstriction in the anaesthetised, artificially respired guinea pig (Konzett-Rossler preparation); type: in vivo; conditions: Cavia porcellus, iv, read-out: ID50 against histamine-induced constriction
Experimental: as §1

Row | Compound | ED50 [1] [µg/kg] | Aerosol route Activity (class symbol) [2] | also measured
1 | CCCCCCCC(C)(O)CCN1C(=O)N(C)C(=O)C1CCCCCCC(=O)OC (centres unmarked) [Compound 1, 1-(3'-hydroxy-3'-methyl-n-decyl)-3-methyl-5-(6"-methoxycarbonyl-n-hexyl)hydantoin] | 4.5 | A | 
2 | CCCCCCC(C)(O)CCN1C(=O)N(CC)C(=O)C1CCCCCCC(=O)OCC (centres unmarked) [Compound 2, 1-(3'-hydroxy-3'-methyl-n-nonyl)-3-ethyl-5-(6"-ethoxycarbonyl-n-hexyl)hydantoin] | 6.8 | A | 
3 | CCCCCCC(C)(O)CCN1C(=O)N(C)C(=O)C1CCCCCCC(=O)OCC (centres unmarked) [Compound 3] | 0.4 | A | minimal effective dose [2]: 250 µg/kg; Oral route Activity (class symbol) [2]: A
4 | COC(=O)CCCCCCC1C(=O)N(C)C(=O)N1CCC1(O)CCCCC1 (centres unmarked) [Compound 4] | 220 |  | 
5 | CCCCCCC(C)(O)CCN1C(=O)N(C)C(=O)C1CCCCCCC(=O)OC (centres unmarked) [Compound 6] | 1.5 |  | 
6 | CCCCC(C)C(C)(O)CCN1C(=O)N(C)C(=O)C1CCCCCCC(=O)OC (centres unmarked) [Compound 7] | 3.3 |  | 
7 | CCCCCCC(C)(O)CCN1C(=O)N(CC)C(=O)C1CCCCCCC(=O)O (centres unmarked) [Compound 16, 1-(3'-hydroxy-3'-methyl-n-nonyl)-3-ethyl-5-(6"-carboxy-n-hexyl)hydantoin] | 5.8 | A | 
8 | CCCCCCCC(C)(O)CCN1C(=O)N(C)C(=O)C1CCCCCCC(=O)O (centres unmarked) [Compound 17] | 8.5 | A | inhibited gastric acid secretion over the dose range [3]: 5000 to 10000 µg/kg; NOAEL ([4]; ip): ≥ 100000 µg/kg; NOAEL ([4]; po): ≥ 300000 µg/kg; prevention of fibrillation induced by chloroform [5]: prevented fibrillation; inhibition at 100 µM [6]: 34%; Test Mean Score + S.E. of Mean (gastric damage score) [7]: 0.43 ± 0.30
9 | CCC(C)(O)CCN1C(=O)N(C)C(=O)C1CCCCCCC(=O)O (centres unmarked) [Compound 18] |  |  | inhibition at 100 µM [6]: 100%; IC50 ([6]; in vitro, read-out: IC50 against collagen-induced aggregation): 7 µM
10 | CN1C(=O)C(CCCCCCC(=O)O)N(CCC2(O)CCCCC2)C1=O (centres unmarked) [Compound 19] | > 220 |  | 
11 | CCCCCCC(C)(O)CCN1C(=O)N(C)C(=O)C1CCCCCCC(=O)O (centres unmarked) [Compound 21, 1-(3'-hydroxy-3'-methyl-n-nonyl)-3-methyl-5-(6"-carboxy-n-hexyl)hydantoin] | 0.6 | A | minimal effective dose [2]: 250 µg/kg; Oral route Activity (class symbol) [2]: A; NOAEL ([4]; po): ≥ 900000 µg/kg; ED50 [8]: 0.6 µg/kg
12 | CCCCC(C)C(C)(O)CCN1C(=O)N(C)C(=O)C1CCCCCCC(=O)O (centres unmarked) [Compound 22] | 3.2 |  | Test Mean Score + S.E. of Mean (gastric damage score) [7]: 0.00 ± 0.00
13 | CN1C(=O)C(CCCCCCC(=O)O)N(CCC(C)(O)c2ccccc2)C1=O (centres unmarked) [Compound 23] | 60 |  | 
14 | CCCCCCC(O)CCN1C(=O)N(C)C(=O)C1CCCCCCC(=O)O (centres unmarked) [Compound 24] | 6 |  | 
15 | CCCCCCC(C)(O)CCN1C(=O)N(C(C)(C)C)C(=O)C1CCCCCCC(=O)O (centres unmarked) [Compound 25] |  |  | Test Mean Score + S.E. of Mean (gastric damage score) [7]: 1.14 ± 0.74
16 | CCCCCCC(C)(O)CCN1C(=S)N(C)C(=O)C1CCCCCCC(=O)OC (centres unmarked) [Compound 30, 1-(3'-hydroxy-3'-methyl-n-nonyl)-3-methyl-5-(6"-methoxycarbonyl-n-hexyl)-2-thiohydantoin] |  |  | Test Mean Score + S.E. of Mean (gastric damage score) [7]: 0.14 ± 0.14
17 | CCCCCCC(C)(O)CCN1C(=S)N(C)C(=O)C1CCCCCCC(=O)OCC (centres unmarked) [Compound 31] | 4.2 |  | Test Mean Score + S.E. of Mean (gastric damage score) [7]: 0.00 ± 0.00
